# According to US9006394B2, “Peptide-presenting surfaces for long-term culture of pluripotent cells” (Wisconsin Alumni Research Foundation, priority 2008, dated 2015):
# Ends that are not written are not given here.
# Columns and labels:
# Type in all cases: cell-based, human
# [1] = test system: hESCs; assay: Long-term (3 months) culture on defined surfaces, markers of pluripotency; conditions: 3 months of continuous passaging
# Description: Preferably, one spots ATs onto an inert background to form self-assembling monolayers (SAMs). See, e.g., Derda et al., supra; Derda R, et al., “Solid-phase synthesis of alkanethiols for the preparation of self-assembled monolayers,” Langmuir 23:11164-11167 (2007); and Houseman B & Mrksich M, “Efficient solid-phase synthesis of peptide-substituted alkanethiols for the preparation of substrates that support the adhesion of cells,” J. Org. Chem. 63:7552-7555 (1998), each of which is incorporated herein by reference as if set forth in its entirety. For example, a background can be formed of perfluoro-AT, which can be both cytophobic (i.e., repel cells) and solvophobic (i.e., repel solvents). First, a gold-coated surface can be coated with a perfluoro-AT monolayer, either leaving areas (i.e., holes) in the monolayer for the elements of an array or creating areas in the monolayer for the elements of the array in a subsequent step. Then, ATs coupled to a peptide, such as an GBP as described herein, can be attached to the substrate in the holes to complete the monolayer and to present ligands for pluripotent cell attachment to the surface. Surface density of the GBPs can be controlled using mixed SAMs of peptide-ATs and non-adhesive glucamine-ATs. […]
# Flow cytometry data was obtained using a FACSCalibur™ (BD Biosciences) and analyzed using FlowJo Software (Tree Star, Inc.; Ashland, Oreg.). […]
# [2] = test system: hES cells (H9 and H13) and vector-free iPS cells (DF19-9); assay: Cell growth over two passages (Cell Counting Kit-8)
# Method: hESCs (H9) were cultured on Matrigel, vitronectin, polylysine, […] (SEQ ID NO: 1), or KGRGDS (SEQ ID NO: 5) over two passages in mTeSR media supplemented with 5 μm ROCK inhibitor. Cell counts were calculated at each time point using Cell Counting Kit-8 (Dojindo Molecular Technologies, Inc., Rockville, Md.).
# [3] = test system: pluripotent stem cells; assay: Number of cell divisions by fluorescent cell staining; conditions: listed as GKKQRFRHRNKG
# [4] = test system: hESCs; assay: Embryoid body differentiation after long-term culture, germ layer marker staining; conditions: 3 months on surface, then 2 weeks EB suspension culture
# Description: Images were collected with a Hamamatsu (Bridgewater, N.J.) Digital Camera mounted onto an Olympus IX81 Microscope. Primary antibodies used were as follows: Oct-4 (1:400; R&D Systems; Minneapolis, Minn.), SSEA-4 (1:400; Santa Cruz Biotechnology; Santa Cruz, Calif.), β-III tubulin (1:3000; R&D Systems), nestin (1:3000), α-fetoprotein (1:250; Sigma), FoxA2 (1:100; R&D Systems), α-smooth muscle actin (1:1000; Sigma), and fatty acid binding protein 4 (1:250; R&D Systems). Cells were fixed with PBS containing 4% formaldehyde and 0.15% picric acid for 20 minutes at 37° C. and then permeabilized and blocked with PBS containing 0.1% Triton X-100 and 0.1% bovine serum albumin (BSA). All antibodies were incubated in blocking buffer overnight at 4° C., except for the antibodies against β-III tubulin, nestin and α-smooth muscle actin, which were incubated for 1 hour at room temperature. Secondary staining was performed with Alexa Fluor® 488- and/or 594-conjugated antibodies (1:1000; Invitrogen) diluted in blocking buffer and incubated for 1 hour at room temperature. Cells were counterstained with 4′,6-diamidino-2-phenylindole, dilactate (DAPI; Invitrogen). Image overlays were generated using ImageJ (ImageJ is a public domain Java image processing program available on the World Wide Web). Peptide array mosaics were generated using the AnalySIS Acquisition Software (Olympus).
sequence,measurement,setting,value
GKKQRFRHRNRKG (not fully specified (C-terminus); listed as Homo sapiens),markers of pluripotency after 3 months of culture,[1],maintained high levels of markers of pluripotency
same,markers of pluripotency after 3 months of culture,[1]; listed as SEQ ID NO:1,maintained at high levels
same,plating efficiency after 24 hours,[2]; 24 hours,equivalent
same,cell numbers after each passage,"[2]; two passages, mTeSR with ROCK inhibitor",Increased cell numbers
same,number of cell divisions,[3],superior to polylysine-coated surfaces
same,ectoderm derivatives: staining for β-III tubulin and nestin,[4],stained positive
same,endoderm derivatives: staining for α-fetoprotein and FoxA2,[4],stained positive
same,mesoderm derivatives: staining for fatty acid binding protein 4 and α-smooth muscle actin,[4],stained positive
